Assay results as given in PubChem BioAssay (NCI).
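Protocol summary: plate cells (96-well), add compound at 5 concentrations, incubate 48 h, interpolate endpoints linearly. TGI marks complete inhibition of growth.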

test system: EKVX NSCLC; assay: inhibition of tumour cell growth, NCI panel, 48 h

Structure (SMILES)	TGI
On1c(-c2ccccc2)nc2ccccc2c1=S	> 100 µM
Cn1c2ccccc2c(=O)c2cccc(C(=O)NC(CCCN=C(N)N)C(=O)O)c21 (stereo not given)	> 100 µM
C=C1CN2CC(=C)CN(C1)CS(=O)(=O)N1CC(=C)CN(CC(=C)C1)S(=O)(=O)N1CC(=C)CN(CC(=C)C1)S(=O)(=O)C2	> 100 µM
O=C(O)/C=c1/c2ccccc2n2nc3ccccc3c12	> 100 µM
Nc1ccc(S2(c3ccc(N)cc3)C=C(c3ccccc3)C(c3ccccc3)=C2)cc1	> 100 µM
COc1ccc2c(cnc3c4cc(OC)c(OC)cc4ccc23)c1	> 100 µM
O=C1C(=Cc2ccccc2O)N=C(c2ccccc2)N1n1c(-c2ccccc2)nc2ccccc2c1=O	> 100 µM

test system: MCF7 breast; assay: inhibition of tumour cell growth, NCI panel, 48 h

Structure (SMILES)	TGI
C=C1C(=O)C=C[C@]2(C)CC[C@H]3C(=C)C(=O)O[C@@H]3[C@@H]12	13.3 µM
COc1ccc(C2OC(c3ccncc3)=NN2C)cc1OC (stereo not given)	> 100 µM
COC1C=COC2(C)Oc3c(C)c(O)c4c(O)c(c(C5SCCS5)c(O)c4c3C2=O)NC(=O)C(C)=C/C=C\C(C)C2OC(C)(C)OC(C2C)C(C)C(OC(C)=O)C1C (stereo not given)	7.77 µM
CC(C)(C)C(=O)CC1=Nc2ccccc2SC1(O)CC(=O)C(C)(C)C (stereo not given)	61.2 µM
N#CC1=C(N)N(c2ccccc2)C(c2ccccc2)C1(C#N)C#N (stereo not given)	31.7 µM
CCOC(=O)NC(Nc1ccc([N+](=O)[O-])cc1)(C(F)(F)F)C(F)(F)F	> 100 µM
CSc1ncnc2c1ncn2CCC#N	> 100 µM
COc1cccc(/C=N/n2c(C)n[nH]c2=O)c1	> 100 µM
CC1CCCC(CC(=O)O)(CC(=O)O)C1 (stereo not given)	> 100 µM
CC(=O)OCC1OC(n2c3c(cc(C#N)c2=S)CCCCC3)C(OC(C)=O)C(OC(C)=O)C1OC(C)=O (stereo not given)	> 100 µM
CCC(=O)ONC(=O)Cn1ccc([N+](=O)[O-])n1	> 100 µM
O=C(O)c1ccc(OCc2nc3cc(C(F)(F)F)ccc3nc2-c2ccccc2)cc1	> 100 µM
COc1ccc(/C=C2\N=C(SC)NC2=O)cc1	> 100 µM
CC(C)NC(=O)OCCN=c1c2ccccc2ccc2ccccc12	> 100 µM
O=c1oc2ccc([N+](=O)[O-])cc2c(Nc2ccc3c(c2)Oc2ccccc2O3)c1[N+](=O)[O-]	67.5 µM
On1c(-c2ccccc2)nc2ccccc2c1=S	> 100 µM
Cn1c2ccccc2c(=O)c2cccc(C(=O)NC(CCCN=C(N)N)C(=O)O)c21 (stereo not given)	> 100 µM
C=C1CN2CC(=C)CN(C1)CS(=O)(=O)N1CC(=C)CN(CC(=C)C1)S(=O)(=O)N1CC(=C)CN(CC(=C)C1)S(=O)(=O)C2	> 100 µM
O=C(O)/C=c1/c2ccccc2n2nc3ccccc3c12	> 100 µM
Nc1ccc(S2(c3ccc(N)cc3)C=C(c3ccccc3)C(c3ccccc3)=C2)cc1	> 100 µM
COc1ccc2c(cnc3c4cc(OC)c(OC)cc4ccc23)c1	> 100 µM
O=C1C(=Cc2ccccc2O)N=C(c2ccccc2)N1n1c(-c2ccccc2)nc2ccccc2c1=O	64.3 µM
CC(C)=CCNc1ncnc2c1ncn2CCC#N	> 100 µM

test system: SNB-75 CNS; assay: inhibition of tumour cell growth, NCI panel, 48 h

Structure (SMILES)	TGI
COC1C=COC2(C)Oc3c(C)c(O)c4c(O)c(c(C5SCCS5)c(O)c4c3C2=O)NC(=O)C(C)=C/C=C\C(C)C2OC(C)(C)OC(C2C)C(C)C(OC(C)=O)C1C (stereo not given)	> 100 µM
N#CC1=C(N)N(c2ccccc2)C(c2ccccc2)C1(C#N)C#N (stereo not given)	42 µM
CCOC(=O)NC(Nc1ccc([N+](=O)[O-])cc1)(C(F)(F)F)C(F)(F)F	> 100 µM
CSc1ncnc2c1ncn2CCC#N	> 100 µM
COc1cccc(/C=N/n2c(C)n[nH]c2=O)c1	> 100 µM
CC(=O)OCC1OC(n2c3c(cc(C#N)c2=S)CCCCC3)C(OC(C)=O)C(OC(C)=O)C1OC(C)=O (stereo not given)	> 100 µM
CCC(=O)ONC(=O)Cn1ccc([N+](=O)[O-])n1	> 100 µM
O=C(O)c1ccc(OCc2nc3cc(C(F)(F)F)ccc3nc2-c2ccccc2)cc1	98.7 µM
COc1ccc(/C=C2\N=C(SC)NC2=O)cc1	> 100 µM
CC(C)NC(=O)OCCN=c1c2ccccc2ccc2ccccc12	> 100 µM
O=c1oc2ccc([N+](=O)[O-])cc2c(Nc2ccc3c(c2)Oc2ccccc2O3)c1[N+](=O)[O-]	> 100 µM
On1c(-c2ccccc2)nc2ccccc2c1=S	> 100 µM
Cn1c2ccccc2c(=O)c2cccc(C(=O)NC(CCCN=C(N)N)C(=O)O)c21 (stereo not given)	> 100 µM
Nc1ccc(S2(c3ccc(N)cc3)C=C(c3ccccc3)C(c3ccccc3)=C2)cc1	> 100 µM
O=C1C(=Cc2ccccc2O)N=C(c2ccccc2)N1n1c(-c2ccccc2)nc2ccccc2c1=O	87.8 µM
CC(C)=CCNc1ncnc2c1ncn2CCC#N	> 100 µM

test system: SNB-19 CNS; assay: inhibition of tumour cell growth, NCI panel, 48 h

Structure (SMILES)	TGI
C=C1C(=O)C=C[C@]2(C)CC[C@H]3C(=C)C(=O)O[C@@H]3[C@@H]12	87.6 µM
COc1ccc(C2OC(c3ccncc3)=NN2C)cc1OC (stereo not given)	> 100 µM
COC1C=COC2(C)Oc3c(C)c(O)c4c(O)c(c(C5SCCS5)c(O)c4c3C2=O)NC(=O)C(C)=C/C=C\C(C)C2OC(C)(C)OC(C2C)C(C)C(OC(C)=O)C1C (stereo not given)	> 100 µM
CC(C)(C)C(=O)CC1=Nc2ccccc2SC1(O)CC(=O)C(C)(C)C (stereo not given)	> 100 µM
N#CC1=C(N)N(c2ccccc2)C(c2ccccc2)C1(C#N)C#N (stereo not given)	43.2 µM
CCOC(=O)NC(Nc1ccc([N+](=O)[O-])cc1)(C(F)(F)F)C(F)(F)F	> 100 µM
CSc1ncnc2c1ncn2CCC#N	> 100 µM
COc1cccc(/C=N/n2c(C)n[nH]c2=O)c1	> 100 µM
CC1CCCC(CC(=O)O)(CC(=O)O)C1 (stereo not given)	> 100 µM
CC(=O)OCC1OC(n2c3c(cc(C#N)c2=S)CCCCC3)C(OC(C)=O)C(OC(C)=O)C1OC(C)=O (stereo not given)	> 100 µM
CCC(=O)ONC(=O)Cn1ccc([N+](=O)[O-])n1	> 100 µM
O=C(O)c1ccc(OCc2nc3cc(C(F)(F)F)ccc3nc2-c2ccccc2)cc1	> 100 µM
COc1ccc(/C=C2\N=C(SC)NC2=O)cc1	> 100 µM
CC(C)NC(=O)OCCN=c1c2ccccc2ccc2ccccc12	> 100 µM
O=c1oc2ccc([N+](=O)[O-])cc2c(Nc2ccc3c(c2)Oc2ccccc2O3)c1[N+](=O)[O-]	> 100 µM
On1c(-c2ccccc2)nc2ccccc2c1=S	> 100 µM
Cn1c2ccccc2c(=O)c2cccc(C(=O)NC(CCCN=C(N)N)C(=O)O)c21 (stereo not given)	> 100 µM
C=C1CN2CC(=C)CN(C1)CS(=O)(=O)N1CC(=C)CN(CC(=C)C1)S(=O)(=O)N1CC(=C)CN(CC(=C)C1)S(=O)(=O)C2	> 100 µM
O=C(O)/C=c1/c2ccccc2n2nc3ccccc3c12	87.3 µM
Nc1ccc(S2(c3ccc(N)cc3)C=C(c3ccccc3)C(c3ccccc3)=C2)cc1	> 100 µM
COc1ccc2c(cnc3c4cc(OC)c(OC)cc4ccc23)c1	> 100 µM
O=C1C(=Cc2ccccc2O)N=C(c2ccccc2)N1n1c(-c2ccccc2)nc2ccccc2c1=O	> 100 µM
CC(C)=CCNc1ncnc2c1ncn2CCC#N	> 100 µM

test system: MOLT-4 leukemia; assay: inhibition of tumour cell growth, NCI panel, 48 h

Structure (SMILES)	TGI
C=C1C(=O)C=C[C@]2(C)CC[C@H]3C(=C)C(=O)O[C@@H]3[C@@H]12	3.52 µM
COc1ccc(C2OC(c3ccncc3)=NN2C)cc1OC (stereo not given)	> 100 µM
COC1C=COC2(C)Oc3c(C)c(O)c4c(O)c(c(C5SCCS5)c(O)c4c3C2=O)NC(=O)C(C)=C/C=C\C(C)C2OC(C)(C)OC(C2C)C(C)C(OC(C)=O)C1C (stereo not given)	> 100 µM
CC(C)(C)C(=O)CC1=Nc2ccccc2SC1(O)CC(=O)C(C)(C)C (stereo not given)	24.3 µM
N#CC1=C(N)N(c2ccccc2)C(c2ccccc2)C1(C#N)C#N (stereo not given)	31.7 µM
CCOC(=O)NC(Nc1ccc([N+](=O)[O-])cc1)(C(F)(F)F)C(F)(F)F	> 100 µM
CSc1ncnc2c1ncn2CCC#N	> 100 µM
COc1cccc(/C=N/n2c(C)n[nH]c2=O)c1	> 100 µM
CC1CCCC(CC(=O)O)(CC(=O)O)C1 (stereo not given)	> 100 µM
CC(=O)OCC1OC(n2c3c(cc(C#N)c2=S)CCCCC3)C(OC(C)=O)C(OC(C)=O)C1OC(C)=O (stereo not given)	> 100 µM
CCC(=O)ONC(=O)Cn1ccc([N+](=O)[O-])n1	> 100 µM
COc1ccc(/C=C2\N=C(SC)NC2=O)cc1	> 100 µM
CC(C)NC(=O)OCCN=c1c2ccccc2ccc2ccccc12	71.2 µM
On1c(-c2ccccc2)nc2ccccc2c1=S	11.2 µM
Cn1c2ccccc2c(=O)c2cccc(C(=O)NC(CCCN=C(N)N)C(=O)O)c21 (stereo not given)	> 100 µM
C=C1CN2CC(=C)CN(C1)CS(=O)(=O)N1CC(=C)CN(CC(=C)C1)S(=O)(=O)N1CC(=C)CN(CC(=C)C1)S(=O)(=O)C2	> 100 µM
O=C(O)/C=c1/c2ccccc2n2nc3ccccc3c12	69.6 µM
Nc1ccc(S2(c3ccc(N)cc3)C=C(c3ccccc3)C(c3ccccc3)=C2)cc1	> 100 µM
COc1ccc2c(cnc3c4cc(OC)c(OC)cc4ccc23)c1	> 100 µM
O=C1C(=Cc2ccccc2O)N=C(c2ccccc2)N1n1c(-c2ccccc2)nc2ccccc2c1=O	77.7 µM
CC(C)=CCNc1ncnc2c1ncn2CCC#N	> 100 µM
